Columns and labels:
OVCAR4 cells = assay: Relative frequency of OVCAR4 STn/CD133 subpopulations after chemotherapy treatment (Example 13); assay type: cell-based, human; conditions: vs vehicle
Description: The potential for anti-STn antibodies to target stem cells after treatment of OVCAR4 cells with chemotherapy agents (paclitaxel and/or carboplatin) was evaluated. The relative frequency of the OVCAR4 subpopulations observed following treatment with either vehicle (shaded) or the indicated chemotherapy regimen is shown in FIG. 6.

STn+CD133+ OV90 cells = assay: Cell viability of OV90 cells by MTT assay, chemotherapeutic vs antibody treatment (Example 6); assay type: cell-based, human; conditions: OV90 cells cultured 72 to 144 hours; normalized to vehicle only control
Description: STn+CD133+ OV90 and CSC sub-fractions were treated with different concentrations of paclitaxel (FIG. 2A), carboplatin (FIG. 2B), paclitaxel and carboplatin (FIG. 2C) or with unconjugated anti-STn antibody S3F (FIG. 2D). OV90 cells were cultured for 72 to 144 hours with the indicated chemotherapeutic drug or antibody concentrations and cell viability was analyzed by MTT assay. All values were normalized to a vehicle only control.

OVCAR3 cells = assay: OVCAR3 cell viability by MTT assay, chemotherapeutic vs antibody treatment (Example 15); assay type: cell-based, human; conditions: 72 hours, increasing doses, normalized to vehicle control
Description: The viability of OVCAR3 cells grown in culture was assessed following treatment with carboplatin, paclitaxel, carboplatin and paclitaxel, or S3F (FIG. 7). OVCAR3 cells were cultured for 72 hours with the indicated concentrations of paclitaxel, carboplatin, paclitaxel/carboplatin combination, or S3F. Relative cell viability was determined by measuring cellular metabolic activity using an MTT assay (EMD Millipore, Billerica, Mass.). For each experiment, all values were normalized to the vehicle control.

[1] = tested on: STn positive cells in OVCAR3 xenograft tissues; assay: STn expression in xenograft tissues by flow cytometry at end of OVCAR3 in vivo study (Example 20); parameters: species or system NOD/SCID mice; conditions: 5 mg/kg weekly
Description: OVCAR3 cells were injected into NOD/SCID mice to generate tumor xenografts. Once a sufficient number of mice developed tumor volumes ranging from 200-500 mm^3, mice were randomized into 5 groups (about 6-7 mice/group) with essentially equivalent group mean tumor volumes. Each group received weekly treatments according to the following Table.
At the end of the study, xenograft tissues were processed to a single cell suspension and assessed for STn expression by flow cytometry. Around 80% of the cells in tissues from groups 1, 4, and 5 were STn positive, while the cells from group 2 mice were less than 40% STn positive (a reduction of about 50%) and cells from group 3 mice were around 10% STn positive (a reduction of greater than 85%).

ovarian cancer tissue = assay: Immunohistochemical staining of ovarian cancer tissue sections (Example 9); conditions: primary antibody; compared to normal IgG and no primary antibody
Text: Tissue sections from ovarian cancer tissue were subjected to immunohistochemical staining to identify cells expressing STn using S3F antibody as a primary antibody. Bound antibody was detected using a peroxidase-based secondary detection system.

Row | Molecule | relative frequency of STn-negative subpopulations (STn-/CD133- and STn-/CD133+) (OVCAR4 cells) | relative frequency of STn-positive subpopulations (STn+/CD133- and STn+/CD133+) (OVCAR4 cells) | cell viability (MTT assay) (STn+CD133+ OV90 cells) | relative cell viability (metabolic activity, MTT assay) (OVCAR3 cells) | STn positive cells in xenograft tissues [1] | immunohistochemical staining of STn-expressing cells (ovarian cancer tissue)
1 | CC(=O)O[C@H]1C(=O)[C@@]2(C)[C@H]([C@H](OC(=O)c3ccccc3)[C@]3(O)C[C@H](OC(=O)[C@H](O)[C@@H](NC(=O)c4ccccc4)c4ccccc4)C(C)=C1C3(C)C)[C@]1(OC(C)=O)CO[C@@H]1C[C@@H]2O [paclitaxel] | decrease | increase | significantly reduced | decreased cell viability |  | 
2 | N.N.O=C([O-])C1(C(=O)[O-])CCC1.[Pt+2] [carboplatin] | decrease | increase | significantly reduced | decreased cell viability |  | 
3 | SIA101: anti-STn IgG2a antibody: SIA101 variable domains (SEQ ID NO: 3, 4) with mouse IgG2a constant domains (antibody, V domains shown, not fully specified; mouse IgG2a constant domains; MOD_RES (9)..(9) Any amino acid; MOD_RES (111)..(111) Any amino acid) VH: QVQLQQSDXELVKPGASVKISCKASGYTFTDHAIHWVKQKPEQGLEWIGYFSPGNDDIKYNEKFRGKATLTADKSSSTAYMQLNSLSSDDSAVYFCKRSLSTPYWGQGTLXTVSA VL: DIVMTQSPSSLTVTAGEKVTMSCKSSQSLLNRGNHKNYLTWYRQKPGLPPKLLIYWASTRESGVPDRFTGSGSGTDFALTISSVQAEDLAVYYCQNDYTYPYTFGGGTKLEIKR |  |  |  |  | Around 80% | 
4 | S3F: anti-STn IgG2a antibody: mouse 3F1 variable domains (SEQ ID NO: 1, 2) with mouse IgG2a constant domains; full chains SEQ ID NO: 7, 8 (antibody) heavy: QVQLQQSDAELVKPGASVKISCKASGYTFTDHAIHWVKQKPEQGLDWIGYISPGNGDIKYNEKFKDKVTLTADKSSSTACMHLNSLTSEDSAVYFCKRSLLALDYWGQGTTLTVSSAKTTAPSVYPLAPVCGDTTGSSVTLGCLVKGYFPEPVTLTWNSGSLSSGVHTFPAVLQSDLYTLSSSVTVTSSTWPSQSITCNVAHPASSTKVDKKIEPRGPTIKPCPPCKCPAPNLLGGPSVFIFPPKIKDVLMISLSPIVTCVVVDVSEDDPDVQISWFVNNVEVHTAQTQTHREDYNSTLRVVSALPIQHQDWMSGKEFKCKVNNKDLPAPIERTISKPKGSVRAPQVYVLPPPEEEMTKKQVTLTCMVTDFMPEDIYVEWTNNGKTELNYKNTEPVLDSDGSYFMYSKLRVEKKNWVERNSYSCSVVHEGLHNHHTTKSFSRTPGK light: DIVMTQSHKFMSTSVGDRVSITCKASQDVGTNIAWYQQKPGRSPKVLIYSASTRHTGVPDRFTGSGSGTDFTLTISNVQSEDLTDYFCQQYSSFPLTFGVGTKLELKRADAAPTVSIFPPSSEQLTSGGASVVCFLNNFYPKDINVKWKIDGSERQNGVLNSWTDQDSKDSTYSMSSTLTLTKDEYERHNSYTCEATHKTSTSPIVKSFNRNEC |  |  | no significant effect | no loss of viability | Around 80% | Numerous cells showed positive staining

Reference: US20190031780A1, “COMPOSITIONS AND METHODS FOR TARGETING CANCER STEM CELLS” (Siamab Therapeutics, Inc., priority 2016, published 2019)
